Measurements reported in ChEMBL document CHEMBL4706758, “Novel Substituted Pyridazines as Splicing Modulators for Modulating Splicing of mRNA and Uses Thereof for Treating Diseases” (ACS Med Chem Lett, 2021).

Assays:
[1] = Modulation of HTT mRNA exon 49-50 splicing in human GM04724 cells; assay type: cell-based
[2] = Modulation of HTT mRNA splicing in human GM04724 cells assessed as mHTT protein potency; assay type: cell-based
[3] = Modulation of HTT mRNA exon 49b splicing in human GM04724 cells; assay type: cell-based
SMN2 pre-mRNA [4] = assay: Modulation of SMN2 mRNA FL splicing in spinal muscular atrophy patient fibroblasts; assay type: tissue-based, Homo sapiens; conditions: fibroblast
SMN2 pre-mRNA [5] = assay: Modulation of SMN2 mRNA D7 splicing in spinal muscular atrophy patient fibroblasts; assay type: tissue-based, Homo sapiens; conditions: fibroblast
SMN2 pre-mRNA [6] = assay: Modulation of SMN2 mRNA FL splicing in spinal muscular atrophy patient fibroblasts assessed as SMN2 protein potency; assay type: tissue-based, Homo sapiens; conditions: fibroblast

Structure (SMILES) | EC50 [1] | EC50 [2] | EC50 [3] | EC50 (SMN2 pre-mRNA [4]) | IC50 (SMN2 pre-mRNA [5]) | EC50 (SMN2 pre-mRNA [6])
C[C@@]12CC[C@@H](C[C@H](Oc3ccc(-c4ccc(-c5cn[nH]c5)cc4O)nn3)C1)N2 | 0.01 nM | 0.01 nM | 0.01 nM | 0.01 nM | 0.01 nM | 0.01 nM
COC[C@]12CC[C@H](C[C@@H](N(C)c3ccc(-c4cc(F)c(-n5ccnc5)cc4O)nn3)C1)N2 | 0.01 nM | 0.01 nM | 0.01 nM | 0.01 nM | 0.01 nM | 0.01 nM
C[C@]12CC[C@H](C[C@@H](Oc3ccc(-c4ccc(-c5cn[nH]c5)cc4O)nn3)C1)N2 | 0.01 nM | 0.01 nM | 0.01 nM | 16 nM | 0.01 nM | 0.01 nM
COC[C@@]12CC[C@@H](C[C@H](N(C)c3ccc(-c4cc(F)c(-n5ccnc5)cc4O)nn3)C1)N2 | 0.01 nM | 0.01 nM | 0.01 nM | 0.01 nM | 0.01 nM | 0.01 nM
CN(c1ccc(-c2ccc(-c3cnn(C)c3)cc2O)nn1)[C@H]1C[C@@H]2CC[C@@](C)(N2)[C@H]1F | 0.01 nM | 0.01 nM | 0.01 nM | 0.01 nM | 0.01 nM | 0.01 nM
C[C@@]12CC[C@@H](C[C@H](Oc3ccc(-c4ccc(-n5ccnc5)cc4O)nn3)C1)N2 | 0.01 nM | 0.01 nM | 0.01 nM | 16 nM | 16 nM | 0.01 nM
